The values that follow come from US20250215029A1 (Recludix Pharma, Inc., priority 2022, published 2025).

Assay [1] concerns the target T1, Recombinant STAT3 protein (STAT3 (G127-I722)) (Homo sapiens, UniProt P40763).
T1 construct: Recombinant STAT3 protein (STAT3 (G127-I722))
Put plainly: STAT3 Fluorescence Polarization (FP) Assay. Type of assay: binding. Particulars: STAT3 (G127-I722) 25 nM, probe 5-FAM-GpYLPQTV-NH2 2 nM, 45-minute incubation; read-out: STAT3 (FP assay IC50 class). Put shortly:
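Read-out is fluorescence polarization (mP) after 45 min at room temperature, with IC50 fitted by nonlinear regression against log compound concentration. Mixture: 25 nM STAT3 (G127-I722), 2 nM 5-FAM-GpYLPQTV-NH2 phosphopeptide, 10 mM HEPES pH 7.4 buffer, 1% DMSO.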
For orientation: Polarisation of emitted light reports the rotation of a fluorescent probe.

In assay [2] the target is T2, Recombinant STAT6 protein (STAT6 (W123-T658)) (Homo sapiens, UniProt P42226).
T2 construct: Recombinant STAT6 protein (STAT6 (W123-T658))
T2 sequence (P42226 123-658): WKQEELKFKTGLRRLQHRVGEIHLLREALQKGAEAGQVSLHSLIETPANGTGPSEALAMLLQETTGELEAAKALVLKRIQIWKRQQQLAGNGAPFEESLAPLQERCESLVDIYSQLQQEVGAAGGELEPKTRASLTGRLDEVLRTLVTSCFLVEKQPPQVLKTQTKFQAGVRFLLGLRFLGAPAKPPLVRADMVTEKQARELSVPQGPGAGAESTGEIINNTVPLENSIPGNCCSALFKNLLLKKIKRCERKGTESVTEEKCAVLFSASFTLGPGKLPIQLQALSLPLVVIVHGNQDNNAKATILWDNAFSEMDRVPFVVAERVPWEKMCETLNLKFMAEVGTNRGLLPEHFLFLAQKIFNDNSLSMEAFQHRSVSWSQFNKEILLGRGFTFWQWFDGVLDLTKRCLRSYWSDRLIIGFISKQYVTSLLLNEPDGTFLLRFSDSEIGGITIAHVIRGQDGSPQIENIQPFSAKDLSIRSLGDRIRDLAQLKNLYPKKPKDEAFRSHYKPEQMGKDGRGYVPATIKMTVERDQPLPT
The assay can be described thus: STAT6 Fluorescence Polarization (FP) Assay. In kind it is binding. Particulars: STAT6 (W123-T658) 250 nM, probe 5-FAM-Ap[…]-NH2 2 nM, 45-minute incubation; read-out: STAT6 (FP assay IC50 class). In short, it runs like this: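 Serially diluted compounds received a premix of STAT6 (W123-T658, 250 nM) and 5-FAM peptide probe (2 nM) in pH 7.4 HEPES buffer containing DTT and Tween 20. Following 45 min at room temperature, FP was recorded. IC50s were fitted by nonlinear regression; values are binned A (≤300 nM), B (>300-3000 nM), C (>3-30 μM), D (>30 μM).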

The structures appear in SMILES notation. Some results are limits rather than exact numbers.

In general, IC50 refers to the concentration at which inhibition is half-maximal.

T1 sequence (P40763 127-722): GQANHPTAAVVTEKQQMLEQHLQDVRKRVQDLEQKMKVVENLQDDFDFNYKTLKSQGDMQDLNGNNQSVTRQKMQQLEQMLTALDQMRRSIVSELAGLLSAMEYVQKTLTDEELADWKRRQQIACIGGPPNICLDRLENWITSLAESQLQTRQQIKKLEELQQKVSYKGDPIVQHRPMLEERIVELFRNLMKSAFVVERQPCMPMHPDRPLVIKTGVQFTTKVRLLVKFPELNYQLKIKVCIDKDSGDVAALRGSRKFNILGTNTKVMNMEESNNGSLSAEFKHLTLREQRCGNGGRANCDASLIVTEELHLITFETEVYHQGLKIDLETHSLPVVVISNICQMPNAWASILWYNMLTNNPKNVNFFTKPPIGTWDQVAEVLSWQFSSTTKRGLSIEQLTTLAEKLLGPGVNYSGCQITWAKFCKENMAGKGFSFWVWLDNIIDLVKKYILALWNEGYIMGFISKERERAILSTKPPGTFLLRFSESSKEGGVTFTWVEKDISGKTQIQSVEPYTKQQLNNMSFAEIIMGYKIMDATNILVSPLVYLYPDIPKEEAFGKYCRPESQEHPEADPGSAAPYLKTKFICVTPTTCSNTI

On to `Cc1ccncc1C1CN(C(=O)[C@@H]2CC[C@@H]3CCC[C@H](NC(=O)c4cc5cc(C(F)(F)P(=O)(O)O)ccc5s4)C(=O)N32)C1` [Compound 783, (difluoro(2-(((3S,6S,9aS)-3-(3-(4-methylpyridin-3-yl)azetidine-1-carbonyl)-5-oxooctahydro-1H-pyrrolo[1,2-a]azepin-6-yl)carbamoyl)benzo [b]thiophen-5-yl)methyl) phosphonic acid], for which the IC50 in assay [1] is more than 10000 nM; in assay [2], more than 30000 nM.
For the molecule `CC(C)C1(c2ccccc2)CN(C(=O)[C@@H]2CC[C@@H]3CCC[C@H](NC(=O)c4cc5cc(C(F)(F)P(=O)(O)O)ccc5s4)C(=O)N32)C1` [Compound 784, (difluoro(2-(((3S,6S,9aS)-3-(3-isopropyl-3-phenylazetidine-1-carbonyl)-5-oxooctahydro-1H-pyrrolo[1,2-a]azepin-6-yl)carbamoyl)benzo [b]thiophen-5-yl)methyl) phosphonic acid], the IC50 in assay [1] lay in the range of 100 to 1000 nM; in assay [2], 3000 to 30000 nM.
Regarding `O=C(N[C@H]1CCC[C@H]2CC[C@@H](C(=O)N3CC(C4COC4)C3)N2C1=O)c1cc2cc(C(F)(F)P(=O)(O)O)ccc2s1` [Compound 785, (difluoro(2-(((3S,6S,9aS)-3-(3-(oxetan-3-yl)azetidine-1-carbonyl)-5-oxooctahydro-1H-pyrrolo[1,2-a]azepin-6-yl)carbamoyl)benzo [b]thiophen-5-yl)methyl) phosphonic acid], the IC50 was in the range of 100 to 1000 nM in assay [1] and 3000 to 30000 nM in assay [2].
Taken in the same sequence, the figures for `O=C(N[C@H]1CCCC[C@H]2CC[C@@H](C(=O)N3CCCC34CC4)N2C1=O)c1cc2cc(C(F)(F)P(=O)(O)O)ccc2s1` [Compound 786, (difluoro(2-(((3S,6S,10aS)-5-oxo-3-(4-azaspiro[2.4]heptane-4-carbonyl)decahydropyrrolo[1,2-a]azocin-6-yl)carbamoyl)benzo [b]thiophen-5-yl)methyl) phosphonic acid] were 1000 to 10000 nM and 300 to 3000 nM.
As for `CS(=O)(=O)NC1CN(C(=O)[C@@H]2CC[C@@H]3CCCC[C@H](NC(=O)c4cc5cc(C(F)(F)P(=O)(O)O)ccc5s4)C(=O)N32)C1` [Compound 787, (difluoro(2-(((3S,6S,10aS)-3-(3-(methylsulfonamido)azetidine-1-carbonyl)-5-oxodecahydropyrrolo [1,2-a]azocin-6-yl)carbamoyl)benzo [b]thiophen-5-yl)methyl) phosphonic acid], the figures for the IC50 in assay [1] and in assay [2] were less than 100 nM and 300 to 3000 nM, respectively.
Turning to `CN(CCc1cc[nH]c(=O)c1)C(=O)[C@@H]1CC[C@@H]2CCCC[C@H](NC(=O)c3cc4cc(C(F)(F)P(=O)(O)O)ccc4s3)C(=O)N21` [Compound 788, (difluoro(2-(((3S,6S,10aS)-3-(methyl(2-(2-oxo-1,2-dihydropyridin-4-yl)ethyl)carbamoyl)-5-oxodecahydropyrrolo [1,2-a]azocin-6-yl)carbamoyl)benzo [b]thiophen-5-yl)methyl) phosphonic acid], the IC50 in assay [1] was 1000 to 10000 nM; in assay [2] it was 300 to 3000 nM.
The corresponding values for `O=C(N[C@H]1CCCC[C@H]2CC[C@@H](C(=O)N3Cc4ccncc4C3)N2C1=O)c1cc2cc(C(F)(F)P(=O)(O)O)ccc2s1` [Compound 789, ((2-(((3S,6S,10aS)-3-(2,3-dihydro-1H-pyrrolo[3,4-c]pyridine-2-carbonyl)-5-oxodecahydropyrrolo [1,2-a]azocin-6-yl)carbamoyl)benzo [b]thiophen-5-yl)difluoromethyl) phosphonic acid] are 100 to 1000 nM and 300 to 3000 nM.
As for `CS(=O)(=O)CC1CN(C(=O)[C@@H]2CC[C@@H]3CCC[C@H](NC(=O)c4cc5cc(C(F)(F)P(=O)(O)O)ccc5s4)C(=O)N32)C1` [Compound 790, (difluoro(2-(((3S,6S,9aS)-3-(3-((methylsulfonyl)methyl)azetidine-1-carbonyl)-5-oxooctahydro-1H-pyrrolo[1,2-a]azepin-6-yl)carbamoyl)benzo [b]thiophen-5-yl)methyl) phosphonic acid], the half-maximal inhibitory concentration (IC50) in assay [1] was less than 100 nM; in assay [2] it was 3000 to 30000 nM.
For the molecule `CC(c1cc[nH]c(=O)c1)N(C)C(=O)[C@@H]1CC[C@@H]2CCCC[C@H](NC(=O)c3cc4cc(C(F)(F)P(=O)(O)O)ccc4s3)C(=O)N21` (stereo partly drawn) [Compound 791, (difluoro(2-(((3S,6S,10aS)-3-(methyl(1-(2-oxo-1,2-dihydropyridin-4-yl)ethyl)carbamoyl)-5-oxodecahydropyrrolo [1,2-a]azocin-6-yl)carbamoyl)benzo [b]thiophen-5-yl)methyl) phosphonic acid], the IC50 in assay [1] lay within 100 to 1000 nM; in assay [2], 300 to 3000 nM.
`CC(NC(=O)[C@@H]1CC[C@@H]2CCCC[C@H](NC(=O)c3cc4cc(C(F)(F)P(=O)(O)O)ccc4s3)C(=O)N21)c1cc[nH]c(=O)c1` (stereo partly drawn) [Compound 792, (difluoro(2-(((3S,6S,10aS)-5-oxo-3-((1-(2-oxo-1,2-dihydropyridin-4-yl)ethyl)carbamoyl)decahydropyrrolo[1,2-a]azocin-6-yl)carbamoyl)benzo [b]thiophen-5-yl)methyl) phosphonic acid]: the IC50 is 100 to 1000 nM in assay [1] and 300 to 3000 nM in assay [2].
The corresponding values for `CC(C)n1cc(N(C)C(=O)[C@@H]2CC[C@@H]3CCCC[C@H](NC(=O)c4cc5cc(C(F)(F)P(=O)(O)O)ccc5s4)C(=O)N32)cn1` [Compound 793, (difluoro(2-(((3S,6S,10aS)-3-((1-isopropyl-1H-pyrazol-4-yl)(methyl)carbamoyl)-5-oxodecahydropyrrolo[1,2-a]azocin-6-yl)carbamoyl)benzo [b]thiophen-5-yl)methyl) phosphonic acid] are 1000 to 10000 nM and 3000 to 30000 nM.
Turning to `O=C(N[C@H]1CCCC[C@H]2CC[C@@H](C(=O)N3Cc4cn(C5CC5)nc4C3)N2C1=O)c1cc2cc(C(F)(F)P(=O)(O)O)ccc2s1` [Compound 794, ((2-(((3S,6S,10aS)-3-(2-cyclopropyl-2,4,5,6-tetrahydropyrrolo[3,4-c]pyrazole-5-carbonyl)-5-oxodecahydropyrrolo [1,2-a]azocin-6-yl)carbamoyl)benzo [b]thiophen-5-yl)difluoromethyl) phosphonic acid], the IC50 in assay [1] was in the range of 100 to 1000 nM; in assay [2], 3000 to 30000 nM.
`CN(Cc1cc(=O)[nH]c2ccccc12)C(=O)[C@@H]1CC[C@@H]2CCCC[C@H](NC(=O)c3cc4cc(C(F)(F)P(=O)(O)O)ccc4s3)C(=O)N21` [Compound 795, (difluoro(2-(((3S,6S,10aS)-3-(methyl((2-oxo-1,2-dihydroquinolin-4-yl)methyl)carbamoyl)-5-oxodecahydropyrrolo [1,2-a]azocin-6-yl)carbamoyl)benzo [b]thiophen-5-yl)methyl) phosphonic acid]: the IC50 in assay [1] was 100 to 1000 nM; in assay [2], 300 to 3000 nM.
On to `COC1(c2nncn2C)CN(C(=O)[C@@H]2CC[C@@H]3CCC[C@H](NC(=O)c4cc5cc(C(F)(F)P(=O)(O)O)ccc5s4)C(=O)N32)C1` [Compound 796, (difluoro(2-(((3S,6S,9aS)-3-(3-methoxy-3-(4-methyl-4H-1,2,4-triazol-3-yl)azetidine-1-carbonyl)-5-oxooctahydro-1H-pyrrolo[1,2-a]azepin-6-yl)carbamoyl)benzo [b]thiophen-5-yl)methyl) phosphonic acid], for which the IC50 in assay [1] fell in the range of 100 to 1000 nM; in assay [2], 3000 to 30000 nM.
Turning to `O=C(N[C@H]1CCC[C@H]2CC[C@@H](C(=O)N3CC(c4cnccn4)C3)N2C1=O)c1cc2cc(C(F)(F)P(=O)(O)O)ccc2s1` [Compound 797, (difluoro(2-(((3S,6S,9aS)-5-oxo-3-(3-(pyrazin-2-yl)azetidine-1-carbonyl)octahydro-1H-pyrrolo[1,2-a]azepin-6-yl)carbamoyl)benzo [b]thiophen-5-yl)methyl) phosphonic acid], the results for the 50% inhibitory concentration (IC50) in assay [1] and in assay [2] were 100 to 1000 nM and 3000 to 30000 nM, respectively.
In the case of `Cn1ccnc1C1CN(C(=O)[C@@H]2CC[C@@H]3CCC[C@H](NC(=O)c4cc5cc(C(F)(F)P(=O)(O)O)ccc5s4)C(=O)N32)C1` [Compound 799, (difluoro(2-(((3S,6S,9aS)-3-(3-(1-methyl-1H-imidazol-2-yl)azetidine-1-carbonyl)-5-oxooctahydro-1H-pyrrolo[1,2-a]azepin-6-yl)carbamoyl)benzo [b]thiophen-5-yl)methyl) phosphonic acid], the IC50 is less than 100 nM in assay [1] and 300 to 3000 nM in assay [2].
